# Results as given in patent US9198425B2, “Herbicidally-effective sulfinyl aminobenzamides” (BAYER INTELLECTUAL PROPERTY GMBH, priority 2012, dated 2015).
# What was measured:
# Assay in all cases: Pre-emergence herbicidal action
# Type in all cases: in vivo
# Amaranthus retroflexus = conditions: dosage 320 g/ha
# Excerpt: (§1) Seeds of monocotyledonous and dicotyledonous weed plants and crop plants are placed in wood-fiber pots in sandy loam and covered with soil. The inventive compounds formulated in the form of wettable powders (WP) or as emulsion concentrates (EC) are then applied to the surface of the covering soil as an aqueous suspension or emulsion at a water application rate of 600 to 800 l/ha (converted) with addition of 0.2% wetting agent. After the treatment, the pots are placed in a greenhouse and kept under good growth conditions for the test plants. The damage to the test plants is assessed visually after a test period of 3 weeks by comparison with untreated controls (herbicidal activity in percent (%): 100% action=the plants have died, 0% action=like control plants). For example, compounds No. 6-102, 6-014 and 6-058 at an application rate of 320 g/ha each show at least 80% efficacy against Abutilon theophrasti, Amaranthus retroflexus and Matricaria inodora.
# (§2) In accordance with the conditions specified for pre-emergence testing of herbicidal efficacy against harmful plants, comparative tests were conducted between inventive compounds and compounds known from WO 2011035874 A1.
# Abutilon theophrasti = conditions: dosage 320 g/ha
# Excerpt: as §1, §2
# Pharbitis purpureum = conditions: dosage 320 g/ha
# Excerpt: as §1, §2
# Veronica persica = conditions: Table A, dosage 320 g/ha
# Excerpt: as §1, §2
# Matricaria inodora = conditions: dosage 320 g/ha
# Excerpt: as §1, §2
# Stellaria media = conditions: dosage 320 g/ha
# Excerpt: as §1, §2
# Avena fatua = conditions: Table C, dosage 320 g/ha
# Excerpt: as §1, §2
Structure (SMILES),Herbicidal efficacy against AMARE (Amaranthus retroflexus; Table A) [%],Herbicidal efficacy against ABUTH (Abutilon theophrasti; Table A) [%],Herbicidal efficacy against PHBPU (Pharbitis purpureum; Table A) [%],Herbicidal efficacy against VERPE (Veronica persica) [%],Herbicidal efficacy against MATIN (Matricaria inodora; Table A) [%],Herbicidal efficacy against AMARE (Amaranthus retroflexus; Table B) [%],Herbicidal efficacy against ABUTH (Abutilon theophrasti; Table B) [%],Herbicidal efficacy against STEME (Stellaria media; Table B) [%],Herbicidal efficacy against MATIN (Matricaria inodora; Table B) [%],Herbicidal efficacy against AVEFA (Avena fatua) [%],Herbicidal efficacy against STEME (Stellaria media; Table C) [%],Herbicidal efficacy against PHBPU (Pharbitis purpureum; Table C) [%],Herbicidal efficacy against MATIN (Matricaria inodora; Table C) [%]
CCS(=O)(CC)=Nc1c(Cl)ccc(C(=O)Nc2nonc2C)c1Cl,90,80,80,90,90,–,–,–,–,–,–,–,–
Cc1nonc1NC(=O)c1ccc(Cl)c(N=S2(=O)CCCCC2)c1Cl,–,–,–,–,–,60,90,70,90,–,–,–,–
Cc1nonc1NC(=O)c1ccc(Cl)c(N=S2(=O)CCOCC2)c1Cl,–,–,–,–,–,–,–,–,–,70,90,100,100
Cc1nonc1NC(=O)c1ccc(Cl)c(N(C)C)c1Cl [drawing 39],30,0,10,40,0,–,–,–,–,–,–,–,–
Cc1nonc1NC(=O)c1ccc(Cl)c(N(C)C)c1Cl [drawing 41],–,–,–,–,–,30,0,0,0,–,–,–,–
Cc1nonc1NC(=O)c1ccc(Cl)c(N(C)C)c1Cl [drawing 43],–,–,–,–,–,–,–,–,–,0,0,10,0
